Legend:
Huh-7 [1] = test: Cytotoxicity against human Huh-7 cells assessed as inhibition of cell growth incubated for 48 hrs by MTT assay; assay type: functional, cell-based; settings: Huh-7, 48 h
MDA-MB-231 = test: Cytotoxicity against human MDA-MB-231 cells assessed as inhibition of cell growth incubated for 48 hrs by MTT assay; assay type: functional, cell-based; settings: MDA-MB-231, 48 h
MCF7 = test: Cytotoxicity against human MCF7 cells assessed as inhibition of cell growth incubated for 48 hrs by MTT assay; assay type: functional, cell-based; settings: MCF7, 48 h
A549 [2] = test: Cytotoxicity against human A549 cells assessed as inhibition of cell growth incubated for 48 hrs by MTT assay; assay type: functional, cell-based; settings: A549, 48 h
A549 [3] = test: Cytotoxicity against cisplatin-resistant human A549 cells assessed as inhibition of cell growth incubated for 48 hrs by MTT assay; assay type: functional, cell-based; settings: A549, 48 h
[4] = Resistance factor, ratio of IC50 for cisplatin-resistant human A549 cells to IC50 for human A549 cells; assay type: functional
Huh-7 [5] = test: Cytotoxicity against human Huh-7 cells assessed as inhibition of cell growth measured after 24 hrs by MTT assay; assay type: functional, cell-based; settings: Huh-7, 24 h
L02 = test: Cytotoxicity against human HL7702 cells assessed as inhibition of cell growth measured after 24 hrs by MTT assay; assay type: cell-based; settings: L02, 24 h
[6] = Selectivity index, ratio of IC50 for human HL7702 cells to IC50 for human HepG2 cells; assay type: toxicity; settings: HL7702 cells and HepG2 cells, read-out: Ratio IC50
[7] = Selectivity index, ratio of IC50 for human HL7702 cells to IC50 for human Huh-7 cells; assay type: toxicity; settings: HL7702 cells and Huh-7 cells, read-out: Ratio IC50
[8] = Antitumor activity against human HCC cells xenografted in BALB/c mouse assessed as inhibition of tumor weight at 5 mg/kg, iv administered once daily for 7 days; assay type: functional; settings: 168 h, time 7 day
[9] = Antimetastatic activity against human HCC cells xenografted in BALB/c mouse assessed as reduction lung metastatic nodules at 5 mg/kg, iv administered once every 2 days for 14 days; assay type: functional; settings: 336 h, time 14 day

## CN(C)CCN1C(=O)c2cccc3cc(N)cc(c23)C1=O [AMONAFIDE]
Huh-7 [1]
  IC50: 8.52 µM
MDA-MB-231
  IC50: 15.2 µM
MCF7
  IC50: 10.9 µM
A549 [2]
  IC50: 23.5 µM
A549 [3]
  IC50: 9.56 µM
[4]
  Ratio IC50: 0.41
Huh-7 [5]
  IC50: 8.52 µM
L02
  IC50: 11.6 µM
[6]
  selectivity ratio: 1.23
[7]
  selectivity ratio: 1.36
[8]
  inhibition in vivo at 5 mg/kg: 46.9%
[9]
  inhibition in vivo at 5 mg/kg: 55.8%

Reference: ChEMBL document CHEMBL4842322, “A naphthalimide-polyamine conjugate preferentially accumulates in hepatic carcinoma metastases as a lysosome-targeted antimetastatic agent” (Eur J Med Chem, 2021)
